In PubChem BioAssay (NCI):
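Where inhibition never reached the appropriate level, the endpoint shown equals the highest concentration tested. Otherwise, values were interpolated linearly from a five-concentration, 48-hour dose response in 96-well plates. GI50: concentration for 50% inhibition of growth. TGI: total growth inhibition.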

Columns and labels:
Test in all cases: NCI anticancer screen, dose series, 48 h
[1] = system: U251 CNS
[2] = system: HL-60(TB) leukemia
[3] = system: NCI/ADR-RES ovarian
[4] = system: MDA-MB-435
[5] = system: EKVX NSCLC
[6] = system: PC-3 prostate
[7] = system: A498 renal
[8] = system: MOLT-4 leukemia
[9] = system: UACC-62 melanoma
[10] = system: DU-145 prostate
[11] = system: UACC-257 melanoma
[12] = system: HT29 colon
[13] = system: SR leukemia
[14] = system: LOX IMVI melanoma
[15] = system: HCC-2998 colon
[16] = system: NCI-H23 lung
[17] = system: HCT-15 colon
[18] = system: SK-OV-3 ovarian
[19] = system: SK-MEL-5 melanoma
[20] = system: TK-10 renal
[21] = system: CCRF-CEM leukemia
[22] = system: SN12C renal
[23] = system: HCT-116 colon
[24] = system: COLO 205 colon
[25] = system: HOP-62 NSCLC
[26] = system: SF-295 CNS
[27] = system: M14 melanoma
[28] = system: UO-31 renal
[29] = system: RXF 393 renal
[30] = system: MDA-MB-231 breast
[31] = system: SF-539 CNS
[32] = system: MCF7 breast
[33] = system: SF-268 CNS
[34] = system: SK-MEL-28 melanoma
[35] = system: NCI-H522 lung
[36] = system: IGROV1 ovarian
[37] = system: CAKI-1 renal
[38] = system: SNB-75 CNS
[39] = system: SW-620 colon
[40] = system: OVCAR-4 ovarian
[41] = system: A549 NSCLC
[42] = system: NCI-H226 lung
[43] = system: OVCAR-3 ovarian
[44] = system: BT-549 breast
[45] = system: ACHN renal
[46] = system: OVCAR-8 ovarian
[47] = system: OVCAR-5 ovarian
[48] = system: KM12 colon
[49] = system: NCI-H460 lung
[50] = system: T-47D breast
[51] = system: 786-0 renal
[52] = system: RPMI-8226 leukemia
[53] = system: SK-MEL-2 melanoma
[54] = system: K-562 leukemia
[55] = system: MALME-3M melanoma
[56] = system: SNB-19 CNS
[57] = system: HOP-92 NSCLC
[58] = system: HS 578T breast

In the case of `N#CI1OC(=O)c2ccccc21`, the TGI [1] is reported as greater than 100000 nM, the TGI [2] is reported as greater than 100000 nM and the TGI [3] is reported as greater than 100000 nM. The TGI [4] was greater than 100000 nM, the TGI [5] was greater than 100000 nM and the TGI [6] was greater than 100000 nM. The TGI [7] was greater than 100000 nM, the TGI [8] was greater than 100000 nM and the TGI [9] was greater than 100000 nM. It also gave a TGI [10] greater than 100000 nM, a TGI [11] greater than 100000 nM and a TGI [12] greater than 100000 nM. The TGI [13] was greater than 100000 nM, the TGI [14] was greater than 100000 nM and the TGI [15] was greater than 100000 nM. For the same compound, the TGI [16] was greater than 100000 nM, the TGI [17] was greater than 100000 nM and the TGI [18] was greater than 100000 nM. For the same compound, the TGI [19] was greater than 100000 nM, the TGI [20] was greater than 100000 nM and the TGI [21] was greater than 100000 nM. It also gave a TGI [22] greater than 100000 nM, a TGI [23] greater than 100000 nM and a TGI [24] greater than 100000 nM. It also gave a TGI [25] greater than 100000 nM, a TGI [26] greater than 100000 nM and a TGI [27] greater than 100000 nM. For the same compound, the TGI [28] was greater than 100000 nM, the TGI [29] was greater than 100000 nM and the TGI [30] was greater than 100000 nM. It also gave a TGI [31] greater than 100000 nM, a TGI [32] greater than 100000 nM and a TGI [33] greater than 100000 nM. The TGI [34] was greater than 100000 nM, the TGI [35] was 55600 nM and the TGI [36] was greater than 100000 nM. The TGI [37] was greater than 100000 nM, the TGI [38] was greater than 100000 nM and the TGI [39] was greater than 100000 nM. For the same compound, the TGI [40] was greater than 100000 nM, the TGI [41] was greater than 100000 nM and the TGI [42] was greater than 100000 nM. The TGI [43] was greater than 100000 nM, the TGI [44] was greater than 100000 nM and the TGI [45] was greater than 100000 nM. It also gave a TGI [46] greater than 100000 nM, a TGI [47] greater than 100000 nM and a TGI [48] greater than 100000 nM. For the same compound, the TGI [49] was greater than 100000 nM, the TGI [50] was greater than 100000 nM and the TGI [51] was greater than 100000 nM. The TGI [52] was greater than 100000 nM, the TGI [53] was greater than 100000 nM and the TGI [54] was greater than 100000 nM.

`C=C1C(=O)O[C@H]2[C@H]1CC/C(COC(=O)OCCCCCOC(=O)OC/C1=C/CC[C@@]3(C)O[C@H]3[C@H]3OC(=O)C(=C)[C@@H]3CC1)=C\CC[C@@]1(C)O[C@@H]21` gave a GI50 [1] of 1310 nM, a TGI [1] of 2820 nM and a GI50 [55] of 285 nM. It also gave a TGI [55] of 878 nM, a GI50 [2] of 281 nM and a TGI [2] of 793 nM. The GI50 [3] was 2340 nM, the TGI [3] was 9580 nM and the GI50 [4] was 527 nM. It also gave a TGI [4] of 2130 nM, a GI50 [5] of 1120 nM and a TGI [5] of 3320 nM. The GI50 [6] was 1830 nM, the TGI [6] was 4540 nM and the GI50 [7] was 1500 nM. It also gave a TGI [7] of 3210 nM, a GI50 [8] of 229 nM and a TGI [8] of 727 nM. It also gave a GI50 [9] of 1280 nM, a TGI [9] of 3050 nM and a GI50 [10] of 1040 nM. It also gave a TGI [10] of 2300 nM, a GI50 [11] of 661 nM and a TGI [11] of 2310 nM. For the same compound, the GI50 [12] was 242 nM, the TGI [12] was 726 nM and the GI50 [13] was 208 nM. For the same compound, the TGI [13] was 744 nM, the GI50 [14] was 241 nM and the TGI [14] was 654 nM. For the same compound, the GI50 [16] was 674 nM, the TGI [16] was 2370 nM and the GI50 [17] was 252 nM. It also gave a TGI [17] of 822 nM, a GI50 [18] of 2930 nM and a TGI [18] of 9670 nM. The GI50 [19] was 1530 nM, the TGI [19] was 3070 nM and the GI50 [20] was 222 nM. For the same compound, the TGI [20] was 590 nM, the GI50 [21] was 321 nM and the TGI [21] was 1140 nM. For the same compound, the GI50 [23] was 174 nM, the TGI [23] was 500 nM and the GI50 [24] was 199 nM. It also gave a TGI [24] of 438 nM, a GI50 [25] of 1760 nM and a TGI [25] of 4020 nM. It also gave a GI50 [26] of 2120 nM, a TGI [26] of 5880 nM and a GI50 [27] of 406 nM. It also gave a TGI [27] of 1810 nM, a GI50 [28] of 674 nM and a TGI [28] of 2050 nM. The GI50 [29] was 155 nM, the TGI [29] was 307 nM and the GI50 [30] was 256 nM. The TGI [30] was 803 nM, the GI50 [56] was 2100 nM and the TGI [56] was 7710 nM. For the same compound, the GI50 [31] was 610 nM, the TGI [31] was 2040 nM and the GI50 [33] was 1680 nM. It also gave a TGI [33] of 3990 nM, a GI50 [34] of 252 nM and a TGI [34] of 842 nM. For the same compound, the GI50 [35] was 156 nM, the TGI [35] was 372 nM and the GI50 [36] was 1670 nM. It also gave a TGI [36] of 4370 nM, a GI50 [37] of 308 nM and a TGI [37] of 1020 nM. The GI50 [38] was 1110 nM, the TGI [38] was 2500 nM and the GI50 [39] was 285 nM. It also gave a TGI [39] of 902 nM, a GI50 [40] of 683 nM and a TGI [40] of 2150 nM. For the same compound, the GI50 [41] was 2630 nM, the TGI [41] was 7420 nM and the GI50 [42] was 1640 nM. It also gave a TGI [42] of 3420 nM, a GI50 [43] of 273 nM and a TGI [43] of 823 nM. It also gave a GI50 [44] of 182 nM, a TGI [44] of 437 nM and a GI50 [45] of 176 nM. The TGI [45] was 341 nM, the GI50 [46] was 331 nM and the TGI [46] was 998 nM. The GI50 [47] was 581 nM, the TGI [47] was 2080 nM and the GI50 [57] was 1260 nM. It also gave a TGI [57] of 2940 nM, a GI50 [48] of 1510 nM and a TGI [48] of 3310 nM. For the same compound, the GI50 [49] was 1870 nM, the TGI [49] was 4640 nM and the GI50 [50] was 244 nM. It also gave a TGI [50] of 750 nM, a GI50 [51] of 266 nM and a TGI [51] of 930 nM. For the same compound, the GI50 [52] was 359 nM, the TGI [52] was 1470 nM and the GI50 [53] was 1370 nM. It also gave a TGI [53] of 3310 nM, a GI50 [58] of 2480 nM and a TGI [58] of 19800 nM. The GI50 [54] was 267 nM and the TGI [54] was 1080 nM.
